Measured values from US4975370A, “Process for preparing 14-hydroxy-6-O-methyl-erythromycin A” (Taisho Pharmaceutical Co., Ltd., priority 1986, dated 1990).
Values after ≈ are worked out from the molar mass of the structure shown.

What was measured:
[1] = tested on: Streptococcus pneumoniae IID 553; experiment: In vivo antibacterial test, experimental infection in mouse; conditions: Streptococcus pneumoniae IID 553 infection (intraperitoneal), male ICR mice 26±1 g, drug orally, 7 days observation, probit analysis
Procedure: (§1) The in vivo antibacterial activity of 14-hydroxy-6-O-methylerythromycin A was measured by effect of treatment on experimental infectious diseases in mouse. 6-O-methylerythromycin A and erythromycin A were used as comparative drugs. Staphylococcus aureus BB and Streptococcus pneumoniae IID 553 were used as experimental infectious diseases of mouse. Ten male ICR mice, weighing 26±1 g, were used for each group to a different concentration of one drug. The bacteria were administered intraperitoneally to each groups of […] for infection. 14-hydroxy-6-O-methylerythromycin A, 6-O-methylerythromycin A and erythromycin A were administered orally to different groups of mice. After observing for 7 days, ED50 value was calculated from the number of mice serviving.
(§2) The ED50 values having 95% confidence limits were estimated by probit analysis.

Staphylococcus aureus BB [2] = experiment: as above; conditions: Staphylococcus aureus BB infection (intraperitoneal), male ICR mice 26±1 g, drug orally, 7 days observation, probit analysis
Procedure: as §1, §2

[3] = Acute toxicity (LD50) in ICR mice; conditions: mouse, in vivo, intravenous administration
Gram-positive bacteria [4] = experiment: In vitro antibacterial activity (general statement); assay type: cell-based
Gram-positive bacteria [5] = experiment: In vivo antibacterial activity (general statement, effective amount)
[6] = tested on: Gram-negative bacteria, especially Neisseria gonorroeae and Haemophilus influenzae; experiment: In vitro antibacterial activity (general statement); assay type: cell-based; conditions: some Gram-negative bacteria
[7] = tested on: Staphylococcus pneumoniae IDD 553; experiment: In vitro antibacterial activity (MIC method of the Japan Chemotherapeutic Society); assay type: cell-based; conditions: IDD553, read-out: MIC (minimum inhibitory concentration)
Procedure: (§3) The antibacterial activity (MIC: minimum inhibitory concentration) of 14-hydroxy-6-O-methylerythromycin A was measured according to the MIC method specified by the Japan Chemotherapeutic Society.

[8] = tested on: Enterococcus faecalis ATCC 8043; experiment: as above; assay type: cell-based; conditions: ATCC8043, read-out: MIC (minimum inhibitory concentration)
Procedure: as §3

Branhamella catarrhalis = experiment: as above; assay type: cell-based; conditions: Moraxella catarrhalis, read-out: MIC (minimum inhibitory concentration)
Procedure: as §3

[9] = tested on: Staphylococcus pyogenes IID 689; experiment: as above; assay type: cell-based; conditions: Streptococcus pyogenes, IID689, read-out: MIC (minimum inhibitory concentration)
Procedure: as §3

Staphylococcus aureus BB [10] = experiment: as above; assay type: cell-based; conditions: read-out: MIC (minimum inhibitory concentration)
Procedure: as §3

Micrococcus luteus NIHJ = experiment: as above; assay type: cell-based; conditions: read-out: MIC (minimum inhibitory concentration)
Procedure: as §3

[11] = tested on: Neisseria gonorrhoeae TCC-4; experiment: as above; assay type: cell-based; conditions: TCC4, read-out: MIC (minimum inhibitory concentration)
Procedure: as §3

Salmonella enteritidis = experiment: as above; assay type: cell-based; conditions: Salmonella enterica, read-out: MIC (minimum inhibitory concentration)
Procedure: as §3

[12] = tested on: Klebsiella pneumoniae IFO 3317; experiment: as above; assay type: cell-based; conditions: IFO3317, read-out: MIC (minimum inhibitory concentration)
Procedure: as §3

[13] = tested on: Staphylococcus aureus Smith 4; experiment: as above; assay type: cell-based; conditions: SMITH4, read-out: MIC (minimum inhibitory concentration)
Procedure: as §3

[14] = tested on: Bacillus subtilis ATCC 6633; experiment: as above; assay type: cell-based; conditions: ATCC6633, read-out: MIC (minimum inhibitory concentration)
Procedure: as §3

[15] = tested on: Micrococcus luteus ATCC 9341; experiment: as above; assay type: cell-based; conditions: ATCC9341, read-out: MIC (minimum inhibitory concentration)
Procedure: as §3

[16] = tested on: Staphylococcus epidermidis IID 866; experiment: as above; assay type: cell-based; conditions: IID866, read-out: MIC (minimum inhibitory concentration)
Procedure: as §3

[17] = tested on: Staphylococcus aureus 209P-JC; experiment: as above; assay type: cell-based; conditions: read-out: MIC (minimum inhibitory concentration)
Procedure: as §3

[18] = tested on: Staphylococcus pneumoniae IDD 552; experiment: as above; assay type: cell-based; conditions: IDD552, read-out: MIC (minimum inhibitory concentration)
Procedure: as §3

[19] = tested on: Escherichia coli NIHJ JC-2; experiment: as above; assay type: cell-based; conditions: NIHJJC2, read-out: MIC (minimum inhibitory concentration)
Procedure: as §3

[20] = tested on: Haemophilus influenzae J-48; experiment: as above; assay type: cell-based; conditions: J48, read-out: MIC (minimum inhibitory concentration)
Procedure: as §3

Solubility = assay type: physicochemical

CC[C@H]1OC(=O)[C@H](C)[C@@H](O[C@H]2C[C@@](C)(OC)[C@@H](O)[C@H](C)O2)[C@H](C)[C@@H](O[C@@H]2O[C@H](C)C[C@H](N(C)C)[C@H]2O)[C@](C)(OC)C[C@@H](C)C(=O)[C@H](C)[C@@H](O)[C@]1(C)O [6-O-Methyl-erythromycin A, 6-O-methylerythromycin A]
ED50 [1]: 0.222 mg/mouse
ED50 (Staphylococcus aureus BB [2]): 0.394 mg/mouse

CO[C@]1(C)C[C@@H](C)C(=O)[C@H](C)[C@@H](O)[C@](C)(O)[C@@H](C(C)O)OC(=O)[C@H](C)[C@@H](O[C@H]2C[C@@](C)(OC)[C@@H](O)[C@H](C)O2)[C@H](C)[C@H]1O[C@@H]1O[C@H](C)C[C@H](N(C)C)[C@H]1O (stereo partly drawn) [14-hydroxy-6-O-methylerythromycin A]
LD50 [3]: 560 mg/kg
in vitro antibacterial activity (Gram-positive bacteria [4]): strong
in vivo antibacterial activity against some Gram-positive bacteria (Gram-positive bacteria [5]; compared with 6-O-methylerythromycin A): stronger
ED50 (Gram-positive bacteria [5]; general statement): 3 to 10 mg/kg
ED50 [1]: 0.069 mg/mouse
ED50 (Staphylococcus aureus BB [2]): 0.234 mg/mouse
in vitro antibacterial activity [6]: strong
MIC [7]: 0.025 µg/mL (≈ 0.0327 µM)
MIC [8]: 0.05 µg/mL (≈ 0.0654 µM)
MIC (Branhamella catarrhalis): 0.05 µg/mL (≈ 0.0654 µM)
MIC [9]: 0.025 µg/mL (≈ 0.0327 µM)
MIC (Staphylococcus aureus BB [10]): 0.2 µg/mL (≈ 0.262 µM)
MIC (Micrococcus luteus NIHJ): 0.05 µg/mL (≈ 0.0654 µM)
MIC [11]: 0.39 µg/mL (≈ 0.51 µM)
MIC (Salmonella enteritidis): 25 µg/mL (≈ 32.7 µM)
MIC [12]: 25 µg/mL (≈ 32.7 µM)
MIC [13]: 0.2 µg/mL (≈ 0.262 µM)
MIC [14]: 0.1 µg/mL (≈ 0.131 µM)
MIC [15]: 0.025 µg/mL (≈ 0.0327 µM)
MIC [16]: 0.2 µg/mL (≈ 0.262 µM)
MIC [17]: 0.1 µg/mL (≈ 0.131 µM)
MIC [18]: 0.025 µg/mL (≈ 0.0327 µM)
MIC [19]: 50 µg/mL (≈ 65.4 µM)
MIC [20]: 3.13 µg/mL (≈ 4.1 µM)
Solubility (Solubility; in chloroform, methanol, ethanol, acetone, ethyl acetate and pyridine): Soluble
Solubility (Solubility; in ethyl ether, n-hexane, petroleum ether, benzene and water): Poorly soluble

CC[C@H]1OC(=O)[C@H](C)[C@@H](O[C@H]2C[C@@](C)(OC)[C@@H](O)[C@H](C)O2)[C@H](C)[C@@H](O[C@@H]2O[C@H](C)C[C@H](N(C)C)[C@H]2O)[C@](C)(O)C[C@@H](C)C(=O)[C@H](C)[C@@H](O)[C@]1(C)O [Erythromycin A, erythromycin A]
ED50 [1]: 1.43 mg/mouse
ED50 (Staphylococcus aureus BB [2]): 2.20 mg/mouse
